Reference: publication PMC6934184, “Selective DNA-PKcs inhibition extends the therapeutic index of localized radiotherapy and chemotherapy” (The Journal of Clinical Investigation, 2019)

Molecular target: T1, HIPK3 (YAK1) (Homo sapiens, UniProt Q9H422)
T1 construct: purchased Thermo Fisher Scientific (Life Technologies) SelectScreen
Assay: SelectScreen Z'LYTE
Assay type: biochemical
Outline: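 Percent values come from Thermo SelectScreen profiling of NU5455, combining activity and binding assays. CSF1R was run in Z'LYTE format at Km app ATP, and CAMK1 in Adapta format with ATP listed at 10.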

T1 sequence (Q9H422 whole entry): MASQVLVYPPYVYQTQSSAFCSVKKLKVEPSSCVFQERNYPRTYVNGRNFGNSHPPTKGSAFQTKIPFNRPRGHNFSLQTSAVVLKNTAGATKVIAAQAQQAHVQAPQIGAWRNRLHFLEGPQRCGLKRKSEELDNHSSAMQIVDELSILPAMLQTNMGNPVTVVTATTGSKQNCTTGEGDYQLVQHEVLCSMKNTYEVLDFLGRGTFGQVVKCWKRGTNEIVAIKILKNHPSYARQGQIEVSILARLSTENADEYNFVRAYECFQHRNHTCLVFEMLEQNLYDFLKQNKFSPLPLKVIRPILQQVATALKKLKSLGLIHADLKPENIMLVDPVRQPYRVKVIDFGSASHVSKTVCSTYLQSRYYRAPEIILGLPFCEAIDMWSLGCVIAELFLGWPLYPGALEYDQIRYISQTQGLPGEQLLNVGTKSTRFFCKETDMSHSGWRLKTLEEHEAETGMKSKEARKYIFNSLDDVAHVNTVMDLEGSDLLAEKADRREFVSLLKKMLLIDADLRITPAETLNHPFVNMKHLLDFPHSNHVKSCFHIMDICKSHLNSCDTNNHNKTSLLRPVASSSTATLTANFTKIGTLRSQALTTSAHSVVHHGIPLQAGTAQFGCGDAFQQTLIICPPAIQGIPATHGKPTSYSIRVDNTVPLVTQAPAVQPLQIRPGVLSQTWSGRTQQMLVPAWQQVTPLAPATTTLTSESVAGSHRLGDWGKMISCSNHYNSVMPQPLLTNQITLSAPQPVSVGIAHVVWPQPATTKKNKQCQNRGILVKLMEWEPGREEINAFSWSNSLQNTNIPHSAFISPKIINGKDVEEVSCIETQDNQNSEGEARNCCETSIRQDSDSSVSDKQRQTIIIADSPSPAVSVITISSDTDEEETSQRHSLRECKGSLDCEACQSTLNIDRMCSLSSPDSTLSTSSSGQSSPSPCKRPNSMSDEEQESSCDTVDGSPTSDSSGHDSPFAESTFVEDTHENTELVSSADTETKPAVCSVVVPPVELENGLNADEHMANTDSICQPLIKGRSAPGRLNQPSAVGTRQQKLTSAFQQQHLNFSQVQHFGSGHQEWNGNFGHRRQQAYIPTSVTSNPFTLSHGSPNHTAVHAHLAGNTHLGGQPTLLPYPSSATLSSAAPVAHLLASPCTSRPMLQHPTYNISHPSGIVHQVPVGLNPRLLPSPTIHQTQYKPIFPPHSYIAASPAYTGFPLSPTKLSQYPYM

Compound: CN(C(=O)CN1CCOCC1)c1ccc2sc3c(-c4cccc5c(=O)cc(N6CC7CCC(C6)O7)oc45)cccc3c2c1 [NU5455]
- inhibition at 1 µM: 2.5%
